Measured values from ChEMBL document CHEMBL1201862, “PubChem BioAssay data set” (2004).
Each block holds one compound with its values, some of them ahead of it. Activity calls are given as the source filed them.

Experiments:
[1] = biological target: Heat shock protein HSP 90-alpha (Homo sapiens, UniProt P07900); type: functional, organism-based
[2] = LGR2 antagonists, dose response, cell-based, HEK293, CRE-luciferase reporter, cherry pick, set 2 (AID 743343); type: functional;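 further: transfected cells were stimulated with diluted bursicon conditioned medium after compound addition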
[3] = MC4R antagonists, dose response, counter-screen for LGR2 antagonist project, cell-based, plate reader, cherry pick (AID 743444); type: functional;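 further: transfected HEK 293 cells stimulated with alpha-MSH peptide; potency of inhibitors of the alpha-MSH evoked signal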
[4] = intracellular Trypanosoma cruzi inhibitors in host cells – cell-based, plate reader, cherry-pick samples, set 3, dose response (AID 651818); type: functional;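 further: compounds incubated with infected cells for about four days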
[5] = biological target: T1, High affinity choline transporter 1 (Homo sapiens, UniProt Q9GZV3); experiment: CHT inhibitors, dose response, cell-based, 5-point CRC, membrane potential dye (AID 504840); type: functional
T1 sequence (Q9GZV3 whole entry): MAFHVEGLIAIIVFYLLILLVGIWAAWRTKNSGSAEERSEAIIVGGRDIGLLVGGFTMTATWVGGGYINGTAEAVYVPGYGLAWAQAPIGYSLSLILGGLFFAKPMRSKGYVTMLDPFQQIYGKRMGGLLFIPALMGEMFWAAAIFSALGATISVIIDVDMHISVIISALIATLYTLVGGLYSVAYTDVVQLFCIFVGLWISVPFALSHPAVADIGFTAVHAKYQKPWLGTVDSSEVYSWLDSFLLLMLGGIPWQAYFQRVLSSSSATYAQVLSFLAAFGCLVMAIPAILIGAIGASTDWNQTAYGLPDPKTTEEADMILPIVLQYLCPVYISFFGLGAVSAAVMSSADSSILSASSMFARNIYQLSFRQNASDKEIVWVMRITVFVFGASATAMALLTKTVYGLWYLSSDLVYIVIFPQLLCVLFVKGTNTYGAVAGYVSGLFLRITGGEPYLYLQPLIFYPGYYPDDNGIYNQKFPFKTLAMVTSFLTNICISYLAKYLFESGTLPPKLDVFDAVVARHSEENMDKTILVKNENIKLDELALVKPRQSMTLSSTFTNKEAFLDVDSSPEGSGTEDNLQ

[6] = biological target: T2, RNA-binding protein pos-1 (Caenorhabditis elegans, UniProt G5EF15); experiment: inhibitors of POS-1/mex-3 RNA binding, dose response, biochemical, fluorescence polarization (AID 1964);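 further: purified POS-1 fused to maltose binding protein made in E. coli; potency of compounds blocking POS-1 binding to fluorescent RNA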
T2 sequence (G5EF15 whole entry): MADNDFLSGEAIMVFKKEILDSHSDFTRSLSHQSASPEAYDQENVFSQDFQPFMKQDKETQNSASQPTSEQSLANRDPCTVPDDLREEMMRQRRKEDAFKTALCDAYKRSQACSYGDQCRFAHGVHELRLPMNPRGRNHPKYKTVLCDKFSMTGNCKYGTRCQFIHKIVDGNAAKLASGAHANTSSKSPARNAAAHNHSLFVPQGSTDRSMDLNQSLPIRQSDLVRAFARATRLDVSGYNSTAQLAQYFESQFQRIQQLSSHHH

[7] = cytotoxicity toward NIH3T3 fibroblasts, dose response, counter-screen, cell-based, ATP luminescence, mouse fibroblasts (AID 2010); type: functional;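 further: cells exposed to compound for about 90 hours before reading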
[8] = biological target: T3, Zinc finger protein mex-5 (Caenorhabditis elegans, UniProt Q9XUB2); experiment: MEX-5/TCR-2 RNA interaction inhibitors, dose response, biochemical, C. elegans, fluorescence polarization (AID 1960)
T3 sequence (Q9XUB2 whole entry): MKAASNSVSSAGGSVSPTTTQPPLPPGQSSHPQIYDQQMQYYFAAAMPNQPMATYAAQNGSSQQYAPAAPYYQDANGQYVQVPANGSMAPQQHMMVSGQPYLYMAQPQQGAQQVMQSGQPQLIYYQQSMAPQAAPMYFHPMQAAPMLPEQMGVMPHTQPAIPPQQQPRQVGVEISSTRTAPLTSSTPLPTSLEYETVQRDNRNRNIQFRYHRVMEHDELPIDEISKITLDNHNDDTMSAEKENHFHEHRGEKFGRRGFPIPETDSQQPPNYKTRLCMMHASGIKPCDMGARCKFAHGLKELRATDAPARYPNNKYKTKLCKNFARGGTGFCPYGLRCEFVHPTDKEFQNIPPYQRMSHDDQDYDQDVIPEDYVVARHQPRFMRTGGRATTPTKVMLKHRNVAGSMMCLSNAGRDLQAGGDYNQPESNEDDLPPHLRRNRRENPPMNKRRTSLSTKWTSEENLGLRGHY

[9] = inhibitors of intracellular T. cruzi replication, confirmation, NIH3T3 host cells, beta-gal luminescence (AID 2044); type: functional, cell-based;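 further: intracellular parasites grown in NIH/3T3 mouse fibroblasts as host cells; luminescent beta-galactosidase reporter signal from transgenic T. cruzi replicating inside host cells; inhibitors lower the luminescence signal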
[10] = HepG2 cell cytotoxicity, dose response, cytotoxicity control, cherry-picked samples (AID 1159577); type: functional, cell-based
[11] = P. falciparum Dd2 growth inhibitors, dose response, SYBR Green, cherry-picked samples (AID 1159567); type: functional, cell-based

SMILES: CCCCCCC(Cl)(Cn1ccnc1)c1ccccc1 (stereo not drawn)
AC50 [1]: 8.5 µM (active)

SMILES: CCCC(=O)N1CCCC(c2cc(C(=O)Nc3ccccc3)no2)C1 (stereo not drawn)
AC50 [2]: 1.89 µM (active) | AC50 [3]: 2.37 µM (active)

SMILES: O=C(N/N=C/c1cc(I)cc(I)c1O)c1ccccc1O
AC50 [4]: 3.17 µM (active)

SMILES: C[C@@H]1CN([C@H](C)CO)C(=O)Cc2cc(NC(=O)Nc3ccc(C(F)(F)F)cc3)ccc2O[C@@H]1CN(C)Cc1ccccc1
AC50 [4]: 1.94 µM (active)

SMILES: C[C@H]1CN([C@@H](C)CO)C(=O)c2cc(NC(=O)Nc3ccc(C(F)(F)F)cc3)ccc2O[C@H]1CN(C)Cc1ccc(Oc2ccccc2)cc1
AC50 [4]: 3.42 µM (active)

SMILES: C[C@H](CO)N1C[C@H](C)[C@H](CN(C)Cc2ccc(Cl)c(Cl)c2)Oc2ccc(NC(=O)Nc3ccc4c(c3)OCO4)cc2CC1=O
AC50 [4]: 6.16 µM (active)

SMILES: C[C@@H]1CN([C@H](C)CO)C(=O)c2cccc(NC(=O)Nc3ccccc3)c2O[C@H]1CN(C)Cc1ccc(C(=O)Nc2ccccc2N)cc1
AC50 [4]: 2.02 µM (active)

SMILES: Cc1noc(C)c1NC(=O)Nc1cccc2c1O[C@H](CN(C)Cc1ccc(C(=O)Nc3ccccc3N)cc1)[C@@H](C)CN([C@@H](C)CO)C2=O
AC50 [4]: 3.76 µM (active)

SMILES: C[C@@H]1CN([C@@H](C)CO)C(=O)c2cccc(NC(=O)C3CCCCC3)c2O[C@H]1CN(C)Cc1ccc(Oc2ccccc2)cc1
AC50 [4]: 1.71 µM (active)

SMILES: Cc1ccc(S(=O)(=O)Nc2ccc3c(c2)CC(=O)N([C@H](C)CO)C[C@@H](C)[C@H](CN(C)Cc2ccc(Cl)c(Cl)c2)O3)cc1
AC50 [4]: 2.04 µM (active)

SMILES: C[C@@H]1CN([C@@H](C)CO)C(=O)c2cc(NS(=O)(=O)c3ccc(F)cc3)ccc2O[C@H]1CN(C)Cc1ccc(-c2ccccc2)cc1
AC50 [2]: 45.7 µM (active) | AC50 [3]: 20.9 µM (active)

IC50 [5]: 13.2 µM (active)
SMILES: Oc1c(Cl)cc(Cl)cc1/C=N/c1ccc(Br)cc1

SMILES: Cc1nn(-c2ccccc2)c(N2CCCC2)c1/C=N/NC(=O)c1cc(-c2cccnc2)nc2ccccc12
EC50 [6]: > 300 µM (not active) | EC50 [7]: 32.8 µM (active) | EC50 [8]: > 300 µM (not active) | EC50 [9]: 0.306 µM (active)

SMILES: CCS(=O)(=O)N1[C@H](CO)[C@H](c2ccc(C#CCC3CCCC3)cc2)[C@@H]1C#N
AC50 [10]: 62.4 µM (active) | AC50 [11]: 5.64 µM (active)

SMILES: CN(C)C(=O)c1ccc(-c2ccc3c(c2)[C@@H]2[C@@H](CCN2C(=O)C2CCCC2)[C@H](CO)N3C)cc1
AC50 [10]: > 39 µM (inactive) | AC50 [11]: 6.47 µM (active)

SMILES: COc1ccc2c3c(n(C)c2c1)[C@H](CO)N(C(=O)Nc1ccccc1F)CC31CN(C)C1
AC50 [10]: 18.5 µM (active) | AC50 [11]: 6.4 µM (active)

SMILES: CC(C)CC#Cc1ccc2c(c1)O[C@@H](CN(C)Cc1cccc(F)c1)[C@H](C)CN([C@H](C)CO)S2(=O)=O
AC50 [10]: 17.1 µM (active) | AC50 [11]: 4.19 µM (active)

SMILES: CC(C)NC[C@@H]1[C@@H](c2ccc(C3=CCCCC3)cc2)[C@@H](CO)N1C(=O)CC1CC1
AC50 [10]: 36 µM (active) | AC50 [11]: 6.18 µM (active)
